Experimental data taken from paper PMC11375794, “Discovery of new Hsp90–Cdc37 protein–protein interaction inhibitors: in silico screening and optimization of anticancer activity” (RSC Advances, 2024).

Experiments:
Format in all cases: cell-based
[1] = system: Hsp90 client protein levels (Cdk4, Akt, c-Raf, ERα, IGF1R) and Hsp70, Hsp90 in MCF-7 cells; experiment: Western blot of Hsp90 client proteins and heat shock proteins; conditions: for ERα level: MCF-7, 20 μM; for heat shock response (Hsp70 and Hsp90 levels): MCF-7, 24 hours
Protocol: MCF-7 cells were treated with compounds 8c (20 μM and 50 μM), 13g (20 μM and 50 μM) and DDO-5936 (20 μM) or 0.5% DMSO as a negative control. The cells were incubated with the compounds or negative control for 24 hours. After incubation, the cells were rinsed with PBS (Gibco, Thermo Fisher Scientific, Waltham, MA, USA) and lysed using RIPA buffer containing 50 mM Tris–HCl pH 7.4, 150 mM NaCl, 1% NP-40, 0.5% sodium deoxycholate, and 1 mM EDTA. The RIPA buffer was further supplemented with Halt™ Protease Inhibitor Cocktail and Halt™ Phosphatase Inhibitor Cocktail (both from Thermo Fisher Scientific, Waltham, MA, USA) at a 1 : 100 dilution. The lysates were then frozen for at least 24 hours. Upon thawing, the lysates were sonicated and centrifuged at 15 000 rpm for 20 minutes at 4 °C. Only the supernatants were collected, and protein concentration was measured using the DC protein assay (Bio-Rad, Hercules, California, USA). Proteins (20 μg) were separated by SDS-PAGE on a 10% acrylamide/bisacrylamide gel, running at 80 V for 15 minutes followed by 130 V for 60 minutes. The separated proteins were then transferred onto a nitrocellulose membrane using the iBlot 2 Dry Blotting System (Thermo Fisher Scientific, Waltham, MA, USA). The membranes were blocked with 5% BSA for 1 hour at room temperature to prevent nonspecific binding. Primary antibodies were then added, and the membranes were incubated overnight at 4 °C. The primary antibodies (Cell Signaling, Danvers, MA, USA) used included anti-β-ActinMouse mAb (1 : 5000), anti-Hsp90 Rabbit mAb (1 : 1000), anti-Hsp70 Mouse mAb (1 : 1000), anti-IGF1R Rabbit (1 : 1000), anti-CDK4 Rabbit (1 : 1000), anti-ERα Mouse mAb (1 : 1000), anti-Akt Rabbit mAb (1 : 1000), and anti-c-Raf Rabbit mAb (1 : 1000). Secondary antibodies included anti-rabbit IgG, HRP-linked antibody (1 : 10 000), and anti-mouse IgG, HRP-linked antibody (1 : 10 000), which were incubated with the membranes for 1 hour at room temperature. Following washes, SuperSignal™ West Femto Maximum Sensitivity Substrate (Thermo Fisher Scientific, Waltham, MA, USA) was applied. Visualization of the blots was performed using the UVITEC Cambridge Imaging System (UVITEC, Cambridge, UK), and densitometric analysis of the western blot bands was conducted using NineAlliance software. Relative protein densities were calculated in relation to β-actin, used as a loading control.

[2] = system: SK-N-MC cells; experiment: Apoptosis assay, annexin V–PE/SytoxBlue staining, flow cytometry
Protocol: Apoptosis of SK-N-MC cells was evaluated by detecting phosphatidylserines using R-phycoerythrin–annexin V conjugate (R-PE annexin V; Invitrogen, Carlsbad, CA, USA) and nucleic acids in dead cells using SytoxBlue Dead Cell Stain (Invitrogen, Carlsbad, CA, USA), according to the manufacturer's instructions. Briefly, 2.5 × 10^5 SK-N-MC cells were seeded in six-well plates. After 24 hours, cells were washed with PBS and treated with 8c and 13g in 10 and 20 μM concentrations for 24 and 48 hours. The medium with detached cells was then collected, and attached cells were harvested and combined with the detached cells. Following two washing steps with cold PBS, cells were resuspended in 100 μL annexin-binding buffer (Invitrogen, Carlsbad, CA, USA) containing 2.5 μL annexin V–R-PE solution and 750 nM SytoxBlue, and incubated in the dark for 15 minutes at room temperature. Before measurement, 200 μL of annexin-binding buffer was added. A minimum of 10 000 events were collected using a flow cytometer (Attune NxT; Invitrogen, Carlsbad, CA, USA). Annexin V (ANV)-/SYTOX Blue (SB)-indicates viable cells, ANV+/SB− indicates early apoptotic cells, ANV+/SB+ indicates late apoptotic cells, and ANV−/SB+ indicates necrotic cells.

[3] = system: leukemia cell line THP-1; experiment: MTS cell viability (antiproliferative) assay in THP-1; conditions: mean ± SD; for THP-1 IC50: 72 hours; for IC50: Homo sapiens, THP-1, 72 hours
Protocol: (§1) Hormone-positive breast cancer cell line MCF-7 (ATCC-HTB-22; ATCC) was grown in Dulbecco's Modified Eagle's Medium (DMEM), while Ewing sarcoma cell line SK-N-MC (a kind gift from Beat Schäfer) and THP-1 (ATCC-TIB-202; ATCC) cells were grown in Roswell Park Memorial Institute (RPMI) 1640. The medium was supplemented with 10% heat-inactivated fetal bovine serum (Gibco, Thermo Fisher Scientific, Waltham, MA, USA), 100 U per mL penicillin, 100 μg per mL streptomycin, and 2 mM L-glutamine (all from Sigma-Aldrich, St. Louis, MO, USA). All cell lines were incubated at 37 °C in a 5% CO2 atmosphere.
(§2) The antiproliferative activity of the compounds was evaluated against MCF-7 (ATCC-HTB-22; ATCC), SK-N-MC (a kind gift from Beat Schäfer) and THP-1 (ATCC-TIB-202; ATCC) cancer cell lines using the MTS assay (Promega, Madison, WI, USA). Cells were seeded in 96-well plates at a density of 2 × 10^4 cells per mL in 100 μL of growth medium for THP-1 and were treated with compounds and controls directly, while 3 × 10^3 cells per mL for MCF-7 and SK-N-MC were seeded in 100 μL of growth medium and allowed to adhere overnight following the treatment. In all cases the cells were treated with respective newly prepared compounds, positive controls (17-DMAG for MCF-7 and SK-N-MC; PU-H71 for THP-1) and a vehicle control (0.5% DMSO). The incubation time after treatment was 72 hours, then CellTiter96® Aqueous One Solution Reagent (Promega, Madison, WI, USA) was added to each well. Following a 3 hours incubation, absorbance was measured at 492 nm using BioTek's Synergy™ 4 Hybrid Microplate Reader (Winooski, VT, USA). The measurements were performed in two biological repetitions and each time the experiment was performed in a triplicate. The IC50 values, representing the concentration of inhibitor required for half-maximal inhibition, are the average of three independent experiments and were calculated using GraphPad Prism 9.5.0 software (San Diego, CA, USA).

[4] = system: MCF-7 breast cancer cell line; experiment: MTS cell viability (antiproliferative) assay in MCF-7; conditions: Homo sapiens, MCF7, 72 h, MTS assay, 72 hours, mean ± SD
Protocol: as §1, §2

[5] = system: Ewing sarcoma cell line SK-N-MC; experiment: MTS cell viability (antiproliferative) assay in SK-N-MC; conditions: Homo sapiens, SK-N-MC, 72 hours, mean ± SD
Protocol: as §1, §2

Row | SMILES | ERα level ([1]; 24 hours) | Hsp70 levels ([1]; MCF-7, 50 μM, 24 hours) | concentration of kinase clients Cdk4, c-Raf, IGF1R, and Akt ([1]; MCF-7, 50 μM, 24 hours) | heat shock response (Hsp70 and Hsp90 levels) [1] | induction of apoptosis (qualitative) ([2]; 10 μM and 20 μM, 24 and 48 hours) | proportion of apoptotic cells ([2]; 20 μM, 24 hours) [%] | proportion of apoptotic cells ([2]; 20 μM, 48 hours) [%] | THP-1 IC50 [3] | IC50 [3] [µM] | IC50 [4] [µM] | IC50 [5] [µM] | proportion of apoptotic cells ([2]; 10 μM, 24 hours) [%] | proportion of apoptotic cells ([2]; 10 μM, 48 hours) [%]
1 | CN(CCOc1ccccc1)C(=O)c1csc(Nc2cc(N3CCNCC3)ncn2)n1 [Compound 8c, N-Methyl-N-(2-phenoxyethyl)-2-((6-(piperazin-1-yl)pyrimidin-4-yl)amino)thiazole-4-carboxamide] | significantly influenced | statistically insignificant decrease | decreased | do not induce a heat shock response | significantly induced apoptosis | 87.5 | 87.7 | retained some inhibitory activity | 33.9 ± 8.5 | 20 ± 1.2 | 12.8 ± 0.9 |  | 
2 | O=C(NCCOc1ccccc1)c1ccc(Nc2cc(N3CCNCC3)ncn2)cc1 [Compound 13g, N-(2-Phenoxyethyl)-4-((6-(piperazin-1-yl)pyrimidin-4-yl)amino)benzamide] | significantly influenced |  | decreased | do not induce a heat shock response |  | 42.8 | 56.8 | retained some inhibitory activity | 41.5 ± 6.3 | 19.3 ± 2 | 20 ± 1.5 | 27 | 11.4
